Source: US10106577B2, “Agonists of neurotrophin receptors and their use as medicaments” (BIONURE FARMA, S.L., priority 2010, dated 2018)

How the values were obtained:
p75 receptor = target: T1, p75 receptor (Rattus norvegicus, UniProt P07174); assay: Cytometry binding assay in PC12 with anti-TrkA antibody; settings: cells pre-incubated with anti-TrkA antibody; growing NGF
T1 construct: PC12 cells expressing both TrkA and p75 receptors were cultivated in normal growth medium; endogenous in cells; host or cells: PC12
T1 sequence (P07174 30-425): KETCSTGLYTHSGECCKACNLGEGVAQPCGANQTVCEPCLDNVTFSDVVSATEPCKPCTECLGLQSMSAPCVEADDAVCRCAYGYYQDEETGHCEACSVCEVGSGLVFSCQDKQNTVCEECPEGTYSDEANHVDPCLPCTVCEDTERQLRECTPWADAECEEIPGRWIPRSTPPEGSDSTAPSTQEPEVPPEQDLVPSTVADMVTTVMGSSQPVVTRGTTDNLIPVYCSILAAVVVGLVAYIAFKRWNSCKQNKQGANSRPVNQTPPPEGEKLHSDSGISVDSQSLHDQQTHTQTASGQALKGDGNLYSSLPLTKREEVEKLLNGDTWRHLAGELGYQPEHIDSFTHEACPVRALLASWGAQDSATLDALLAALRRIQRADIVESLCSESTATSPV
Procedure: In order to assess the binding of G79 to the TrkA (PC12 cells) and TrkB receptors (SH-SY5Y), we performed competitive binding assays by flow cytometry. In order to assess the binding competition between p75 and TrkA, PC12 cells expressing both TrkA and p75 receptors were cultivated in normal growth medium. After detaching cells by trypsin solution, 200,000 cells/well were added to tubes for the following incubations. One tube contains control untreated cells. In the other tubes, cells were pre-incubated for 45 minutes with different concentrations of NGF (0-10-20-50-100 ng/ml), that can directly bind both TrkA and p75 receptors, blocking the possible binding of G79 if it competes for the same receptors. Then, without washing the cells, G79 conjugated with FITC fluorescence (100 ng/ml) was added and so incubated the cells for 1 hour. Samples were read in a cytometer (FCAScan).
To detect the binding separately on both receptors, a prior incubation of cells (before NGF incubation) with blocking antibodies was made. The cells were preincubated for 1 hour with blocking antibody anti-p75 (1:100; Chemicon Int.), to detect the binding on TrkA, or blocking antibody anti-TrkA (1:200; AbCam) to detect the binding on p75. […] All the results are expressed as mean channel fluorescence (MCF), which is a measure of the cell surface fluorescence produced by G79-FITC binding.

PC12 cells = assay: Receptor activation assay (PC12 differentiation with anti-TrkA antibody); format: cell-based
Procedure: The hypothesis that G79, G80, and G81 can act through the binding to the extracellular portion of TrkA (binding site) and activate the tyrosine kinase receptor was tested by treating the PC12 cells with the small chemicals in combination with the antibody anti-TrkA or the K252a, a tyrosine kinase inhibitor. For this purpose PC12 cells were plated into collagen-coated 24-wells plates with 2.5% FBS and after 72 hrs were incubated with the small molecules alone or in combination with anti-TrkA antibody (AbCam, 1:2000) or K252a. NGF (100 ng/ml) was used as control and added alone or in combination with anti-TrkA antibody or K252a. The number of differentiated cells was evaluated after three days of treatment. The cell count was done in three randomly selected fields with 100 cells.

HSP-27 = assay: Luminex signalling assay in SH-SY5Y; format: cell-based, human; settings: G79 100 ng/ml and 20 μg/ml, BDNF 20 ng/ml; 30 min, 1 h, 2 h, 6 h
Source text: (§1) The human neuroblastoma cell line SH-SY5Y was used to perform Luminex signalling assays using the 10-Plex MAPK/SAPK Signaling Kit-Phosphoprotein (Millipore). This cell line expresses the TrkB receptor and the MAPK/SAPK signalling pathway is typically activated by the tyrosinkinase receptors. The phosphoprotein antibodies included into the kit are the following: ERK/MAP kinase (Thr185/Tyr187); STAT-1 (Tyr701); JNK (Thr183/Tyr185); MEK-1 (Ser212); ATF-2 (Thr69/71); p53 (Ser15); HSP27 (Ser78); c-Jun (Ser73); p38 (Thr180/Tyr182), p70 S6 kinase (Thr412); IkBα (Ser32) (purchased from Millipore).
(§2) The cells were propagated and then seeded into 24-well plates (30.000 cell/well). After 24 hours, the cells were treated with two different concentrations of NGF-receptor agonist G79: 100 ng/ml and 20 μg/ml. After adding G79 into the medium, the cells were collected in the lysis buffer of the kit at the following time points: 30 min, 1 h, 2 h, and 6 h. The assay was performed in this way to assess both time and dose effects comparing the treated samples with the untreated cells used as negative controls (unstimulated SH-SY5Y cells). BDNF was used as positive control at the concentration 20 ng/ml, which is the best working concentration known in literature. In the Luminex plate, each sample was added into a well in duplicate. After adding all the samples, the specific positive and negative controls of phosphorilation, included in the Luminex kit, were added. The assay buffer was also added in duplicate, as a background controls.
(§3) In the circles are the activated factors, while in the grey circles are the tested factors. Its effects of the SY-SY5Y cell line in the phosphorilation of several pathways were assessed using xMAP assay from Luminex. […] The levels of activation are expressed as Median Fluorescence Intensity (MFI).

STAT-1 = assay: Luminex signalling assay in SH-SY5Y; format: cell-based, human; settings: G79 100 ng/ml and 20 μg/ml, BDNF 20 ng/ml; 30 min, 1 h, 2 h, 6 h
Source text: as §1, §2, §3

JNK = assay: Luminex signalling assay in SH-SY5Y; format: cell-based, human; settings: G79 100 ng/ml and 20 μg/ml, BDNF 20 ng/ml; 30 min, 1 h, 2 h, 6 h
Source text: as §1, §2, §3

ATF-2 = assay: Luminex signalling assay in SH-SY5Y; format: cell-based, human; settings: G79 100 ng/ml and 20 μg/ml, BDNF 20 ng/ml; 30 min, 1 h, 2 h, 6 h
Source text: as §1, §2, §3

SH-SY5Y cells = assay: cells; format: cell-based, human; settings: for protective effect against H2O2 oxidative stress (in words): H2O2 100 μM, 20 ng/ml to 50 μg/ml
Procedure: The cells were pre-treated for 3 hours with the test compounds at different concentrations (20 ng/ml, 100 ng/ml, 2 μg/ml, 20 μg/ml and 50 μg/ml) or BDNF (20 ng/ml) as a positive control. Then H2O2 (100 μM) was added and incubated for 24 hrs. The number of surviving cells was determined by MTT assay. […] In FIG. 5B, BDNF cell viability has been considered as the 100%. The H2O2 stress induced a decrease in the percentage of cell viability (no stress Ctr vs H2O2 stress=100±2% vs 95.9±0.5%). G79, compared to G80 and G81, is the one that exerted better protection, at the concentration of 20 ng/ml (BDNF vs G79=100±2.6 vs 107.4±5.8).

[1] = in combination with anti-TrkA antibody (1:2000)

Row | SMILES | binding on p75 (MCF of G79-FITC) (p75 receptor) | number of differentiated cells (PC12 cells; [1]) | number of differentiated cells (PC12 cells; treatment alone) | HSP-27 phospho-activation (MFI) compared to unstimulated control (HSP-27) | STAT-1 phospho-activation (MFI) compared to unstimulated control (STAT-1) | JNK phospho-activation (MFI) compared to unstimulated control (JNK) | ATF-2 phospho-activation (MFI) compared to unstimulated control (ATF-2) | protective effect against H2O2 oxidative stress (in words) (SH-SY5Y cells) | viability at 0.02 µg/mL (SH-SY5Y cells; Homo sapiens, SH-SY5Y, 24 h, read-out: cell viability, BDNF cell viability considered as the 100%) [%]
1 | CC(C)CN(CC(=O)N(CCCN1CCCC1=O)CC(N)=O)C(=O)CNCCc1ccccc1F [Compound G79, [N-(2-(2′-Fluorophenyl)ethyl)glycyl]-[N-(2-methylpropyl)glycyl]-N-[3-(2′-oxopyrrolidinyl)propyl]glycinamide] | could bind on p75 receptor | 19.6±8.1 | 11.5±2.8 | significantly activated at 1 h after G79 treatment (both at 20 μg/ml and 100 ng/ml) | significantly activated at 6 h after G79 treatment (20 μg/ml) | significantly activated at 6 h after G79 treatment (both at 20 μg/ml and 100 ng/ml) | significantly activated at 6 h after G79 treatment (20 μg/ml) | protective effect | 107 ± 5.8
2 | CC(C)CN(CC(=O)N(CCc1ccc(S(N)(=O)=O)cc1)CC(N)=O)C(=O)CNCCc1ccccc1F [Compound G80, [N-(2-(2′-Fluorophenyl)ethyl)glycyl]-[N-(2-methylpropyl)glycyl]-N-[2-(4′-sulfamoylphenyl)ethyl]glycinamide] |  | 14.6±4.1 | 15.1±6.3 |  |  |  |  | protective effect | 
3 | CC(C)CN(CC(=O)N(CCc1ccc(S(N)(=O)=O)cc1)CC(N)=O)C(=O)CNCCN1CCCC1 [Compound G81, [N-(2-(1-Pyrrolidinyl)ethyl)glycyl]-[N-(2-methylpropyl)glycyl]-N-[2-(4′-sulfamoylphenyl)ethyl]glycinamide] |  | 16.5±5.9 | 14.1±3.3 |  |  |  |  | protective effect | 
